Numbers after ± are expanded uncertainties.
Assays:
[1] = wn = mass fraction of the nth substance listed; details: Pendant drop shape
[2] = refractive index (Na D-line) (dimensionless); wn = mass fraction of the nth substance listed; details: 101 kPa, Liquid, Standard Abbe refractometry
[3] = Pendant drop shape
[4] = refractive index (Na D-line) (dimensionless); details: 101.33 kPa, Liquid, Standard Abbe refractometry

CC(CC(C)(C)C)CP(=O)([O-])CC(C)CC(C)(C)C.CCCCCCCCCCCCCC[P+](CCCCCC)(CCCCCC)CCCCCC + O
w2 = 0.158
Details	refractive index	surface tension liquid-gas [mN/m]
[1], 297.9 K	–	28.32 ± 0.33
[1], 307.9 K	–	27.7 ± 0.32
[1], 317.9 K	–	27.24 ± 0.32
[1], 328.8 K	–	26.41 ± 0.31
[1], 339 K	–	25.6 ± 0.3
[1], 343.4 K	–	25.34 ± 0.3
[2], 298.15 K	1.45864 ± 0.00037	–
[2], 303.15 K	1.45697 ± 0.00037	–
[2], 308.15 K	1.45534 ± 0.00037	–
[2], 313.15 K	1.45363 ± 0.00037	–
[2], 318.15 K	1.45192 ± 0.00037	–
[2], 323.15 K	1.45019 ± 0.00037	–
[2], 328.15 K	1.44849 ± 0.00037	–
[2], 333.15 K	1.44683 ± 0.00037	–
[2], 338.15 K	1.44523 ± 0.00037	–
[2], 343.15 K	1.44374 ± 0.00037	–
[2], 348.15 K	1.4424 ± 0.00037	–
[2], 353.15 K	1.44126 ± 0.00037	–

CCCCCCCCCCCCCC[P+](CCCCCC)(CCCCCC)CCCCCC.O=S(=O)([N-]S(=O)(=O)C(F)(F)F)C(F)(F)F + O
w2 = 0.0023
Details	refractive index	surface tension liquid-gas [mN/m]
[1], 298.1 K	–	30.05 ± 0.35
[1], 307.8 K	–	29.33 ± 0.34
[1], 318 K	–	28.6 ± 0.3
[1], 328 K	–	27.91 ± 0.33
[1], 338.6 K	–	27.17 ± 0.32
[1], 343.3 K	–	26.88 ± 0.32
[2], 298.15 K	1.44921 ± 0.00037	–
[2], 303.15 K	1.44765 ± 0.00037	–
[2], 308.15 K	1.44606 ± 0.00037	–
[2], 313.15 K	1.44449 ± 0.00037	–
[2], 318.15 K	1.44293 ± 0.00037	–
[2], 323.15 K	1.44136 ± 0.00037	–
[2], 328.15 K	1.4398 ± 0.00037	–
[2], 333.15 K	1.43822 ± 0.00037	–
[2], 338.15 K	1.43669 ± 0.00037	–
[2], 343.15 K	1.43515 ± 0.00037	–
[2], 348.15 K	1.43362 ± 0.00037	–
[2], 353.15 K	1.43207 ± 0.00037	–

CCCCCCCCCCCCCC[P+](CCCCCC)(CCCCCC)CCCCCC.[Br-] [tetradecyltrihexylphosphonium bromide] + O
Details	refractive index	surface tension liquid-gas [mN/m]
[1], 298.1 K, w2 = 0.0665	–	31.4 ± 0.4
[1], 307.9 K, w2 = 0.0665	–	30.35 ± 0.35
[1], 318.1 K, w2 = 0.0665	–	29.64 ± 0.34
[1], 328.1 K, w2 = 0.0665	–	28.95 ± 0.33
[1], 338.9 K, w2 = 0.0665	–	28.2 ± 0.33
[1], 344.2 K, w2 = 0.0665	–	27.91 ± 0.33
[2], 298.15 K, w2 = 0.065	1.4782 ± 0.00037	–
[2], 303.15 K, w2 = 0.065	1.47646 ± 0.00037	–
[2], 308.15 K, w2 = 0.065	1.47465 ± 0.00037	–
[2], 313.15 K, w2 = 0.065	1.47289 ± 0.00037	–
[2], 318.15 K, w2 = 0.065	1.47115 ± 0.00037	–
[2], 323.15 K, w2 = 0.065	1.46939 ± 0.00037	–
[2], 328.15 K, w2 = 0.065	1.46765 ± 0.00037	–
[2], 333.15 K, w2 = 0.065	1.46587 ± 0.00037	–
[2], 338.15 K, w2 = 0.065	1.46414 ± 0.00037	–
[2], 343.15 K, w2 = 0.065	1.46244 ± 0.00037	–
[2], 348.15 K, w2 = 0.065	1.46078 ± 0.00037	–
[2], 353.15 K, w2 = 0.065	1.45926 ± 0.00037	–

CCCCCCCCCCCCCC[P+](CCCCCC)(CCCCCC)CCCCCC.[Br-] [tetradecyltrihexylphosphonium bromide]
Details	refractive index	surface tension liquid-gas [mN/m]
[3], 298.2 K	–	30.9 ± 0.4
[3], 308.5 K	–	30.2 ± 0.4
[3], 318 K	–	29.6 ± 0.3
[3], 328.8 K	–	28.7 ± 0.4
[3], 338.6 K	–	28.1 ± 0.3
[3], 343.4 K	–	27.9 ± 0.4
[4], 283.15 K	1.49456 ± 0.00037	–
[4], 288.15 K	1.49295 ± 0.00037	–
[4], 293.15 K	1.49139 ± 0.00037	–
[4], 298.15 K	1.48977 ± 0.00037	–
[4], 303.15 K	1.48814 ± 0.00037	–
[4], 308.15 K	1.48654 ± 0.00037	–
[4], 313.15 K	1.4849 ± 0.00037	–
[4], 318.15 K	1.4833 ± 0.00037	–
[4], 323.15 K	1.48167 ± 0.00037	–
[4], 328.15 K	1.47999 ± 0.00037	–
[4], 333.15 K	1.47834 ± 0.00037	–
[4], 338.15 K	1.47677 ± 0.00037	–
[4], 343.15 K	1.47511 ± 0.00037	–
[4], 348.15 K	1.47346 ± 0.00037	–
[4], 353.15 K	1.47189 ± 0.00037	–

CCCCCCCCCCCCCC[P+](CCCCCC)(CCCCCC)CCCCCC.[Cl-] [trihexyl(tetradecyl)phosphonium chloride]
Details	refractive index	surface tension liquid-gas [mN/m]
[3], 298.6 K	–	30.6 ± 0.4
[3], 308 K	–	30.1 ± 0.3
[3], 318 K	–	29.3 ± 0.3
[3], 328.1 K	–	28.6 ± 0.3
[3], 338.3 K	–	27.8 ± 0.3
[3], 343.3 K	–	27.5 ± 0.4
[4], 283.15 K	1.48794 ± 0.00037	–
[4], 288.15 K	1.48635 ± 0.00037	–
[4], 293.15 K	1.48471 ± 0.00037	–
[4], 298.15 K	1.48309 ± 0.00037	–
[4], 303.15 K	1.48142 ± 0.00037	–
[4], 308.15 K	1.47973 ± 0.00037	–
[4], 313.15 K	1.47796 ± 0.00037	–
[4], 318.15 K	1.4757 ± 0.00037	–
[4], 323.15 K	1.47387 ± 0.00037	–
[4], 328.15 K	1.4721 ± 0.00037	–
[4], 333.15 K	1.47029 ± 0.00037	–
[4], 338.15 K	1.46854 ± 0.00037	–
[4], 343.15 K	1.46677 ± 0.00037	–
[4], 348.15 K	1.46504 ± 0.00037	–
[4], 353.15 K	1.4634 ± 0.00037	–

CC(CC(C)(C)C)CP(=O)([O-])CC(C)CC(C)(C)C.CCCCCCCCCCCCCC[P+](CCCCCC)(CCCCCC)CCCCCC
Details	refractive index	surface tension liquid-gas [mN/m]
[3], 297.9 K	–	28.2 ± 0.4
[3], 307.9 K	–	27.6 ± 0.3
[3], 317.7 K	–	26.9 ± 0.3
[3], 328.1 K	–	26.2 ± 0.4
[3], 338 K	–	25.5 ± 0.4
[3], 342.9 K	–	25 ± 0.3
[4], 283.15 K	1.47702 ± 0.00037	–
[4], 288.15 K	1.47538 ± 0.00037	–
[4], 293.15 K	1.47374 ± 0.00037	–
[4], 298.15 K	1.47209 ± 0.00037	–
[4], 303.15 K	1.47044 ± 0.00037	–
[4], 308.15 K	1.46879 ± 0.00037	–
[4], 313.15 K	1.46712 ± 0.00037	–
[4], 318.15 K	1.46546 ± 0.00037	–
[4], 323.15 K	1.46383 ± 0.00037	–
[4], 328.15 K	1.46216 ± 0.00037	–
[4], 333.15 K	1.46056 ± 0.00037	–
[4], 338.15 K	1.45893 ± 0.00037	–
[4], 343.15 K	1.45716 ± 0.00037	–
[4], 348.15 K	1.45553 ± 0.00037	–
[4], 353.15 K	1.45387 ± 0.00037	–

CCCCCCCCCCCCCC[P+](CCCCCC)(CCCCCC)CCCCCC.O=S(=O)([N-]S(=O)(=O)C(F)(F)F)C(F)(F)F
Details	refractive index	surface tension liquid-gas [mN/m]
[3], 298.2 K	–	30.1 ± 0.3
[3], 307.9 K	–	29.5 ± 0.3
[3], 317.9 K	–	28.7 ± 0.4
[3], 327.9 K	–	28.1 ± 0.3
[3], 337.8 K	–	27.5 ± 0.4
[3], 343.2 K	–	27.3 ± 0.4
[4], 283.15 K	1.45436 ± 0.00037	–
[4], 288.15 K	1.45279 ± 0.00037	–
[4], 293.15 K	1.4512 ± 0.00037	–
[4], 298.15 K	1.4496 ± 0.00037	–
[4], 303.15 K	1.44797 ± 0.00037	–
[4], 308.15 K	1.44637 ± 0.00037	–
[4], 313.15 K	1.44476 ± 0.00037	–
[4], 318.15 K	1.44317 ± 0.00037	–
[4], 323.15 K	1.44158 ± 0.00037	–
[4], 328.15 K	1.43948 ± 0.00037	–
[4], 333.15 K	1.43836 ± 0.00037	–
[4], 338.15 K	1.43681 ± 0.00037	–
[4], 343.15 K	1.43524 ± 0.00037	–
[4], 348.15 K	1.4337 ± 0.00037	–
[4], 353.15 K	1.43213 ± 0.00037	–

Reference: the NIST ThermoML archive (doi:10.1016/j.jct.2012.09.004)
